Source: ChEMBL document CHEMBL1156402, “Two new furanoditerpenes from Saururus chinenesis and their effects on the activation of peroxisome proliferator-activated receptor gamma” (J Nat Prod, 2002)

What was measured:
[1] = biological target: T1, Peroxisome proliferator-activated receptor gamma (Homo sapiens) (UniProt P37231); experiment: Agonist activity at human PPARgamma expressed in mouse NIH/3T3 cells assessed as receptor activation at 100 uM after 16 hrs by luciferase based reporter gene assay relative to control; type: functional, cell-based; conditions: NIH3T3
T1 sequence (whole entry): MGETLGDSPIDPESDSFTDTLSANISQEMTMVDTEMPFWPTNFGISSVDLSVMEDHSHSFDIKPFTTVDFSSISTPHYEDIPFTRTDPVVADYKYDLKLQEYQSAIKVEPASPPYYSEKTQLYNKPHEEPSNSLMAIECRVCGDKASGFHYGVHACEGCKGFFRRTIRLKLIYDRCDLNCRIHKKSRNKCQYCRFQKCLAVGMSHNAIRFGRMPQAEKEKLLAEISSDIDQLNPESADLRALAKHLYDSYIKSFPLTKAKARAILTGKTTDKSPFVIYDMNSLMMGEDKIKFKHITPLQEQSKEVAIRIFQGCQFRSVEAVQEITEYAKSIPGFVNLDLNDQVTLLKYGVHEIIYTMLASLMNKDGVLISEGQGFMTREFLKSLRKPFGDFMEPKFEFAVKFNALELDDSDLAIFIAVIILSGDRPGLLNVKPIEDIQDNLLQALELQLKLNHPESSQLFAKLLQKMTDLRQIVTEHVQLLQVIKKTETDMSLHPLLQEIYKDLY

[2] = biological target: T2, Peroxisome proliferator-activated receptor gamma (Homo sapiens, UniProt P37231); experiment: Agonist activity at human PPARgamma expressed in mouse NIH/3T3 cells assessed as receptor activation after 16 hrs by luciferase based reporter gene assay; type: functional, cell-based, NIH3T3
T2 sequence (P37231 whole entry): T1 sequence (whole entry)

| SMILES | fold change (FC) [1] | EC50 [2] [µM] |
| --- | --- | --- |
| C/C(=C/CC/C(C)=C/CC/C(C)=C/Cc1occc1C)C(=O)O [SAURUFURAN A] | 13.5 | 16.7 |
| C/C(=C\CC/C(C)=C/Cc1occc1C)CC/C=C(\C)C(=O)O [SAURUFURAN B] | – | > 100 |
| CC1(COc2ccc(CC3SC(=O)NC3=O)cc2)CCCCC1 (centres undefined) | 15 | – |
